From PubChem BioAssay AID330 (DTP/NCI, 2004)
“And” between values parts separate entries of the source, which are not always exact repeats. Equal values may be shown once. Toxic doses and inconclusive results are not listed. Rule for the calls: active = survival T/C of 150% or more; inactive = T/C below 125% in these data. Peptide text beside a SMILES is read from it.

Tested on: P388 leukemia ip, CD2F1 mice, survival T/C
Experiment: NCI In Vivo Anticancer Drug Screen. Data for tumor model P388 Leukemia (intraperitoneal) in CD2F1 (CDF1) mice
Settings: endpoint: median survival time, higher = longer survival
Method in brief: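 Mice carrying the transplanted tumor received test compound or vehicle. Survival was recorded in each group, and the value is the treated-group measurement divided by that of the vehicle-treated control group.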

[1] = dose: 60.0 mg/kg/injection, schedule: Q01DX005 (ip), vehicle: saline with Tween-80
[2] = dose: 120.0 mg/kg/injection, schedule: Q01DX005 (ip), vehicle: saline with Tween-80
[3] = dose: 12.5 mg/kg/injection, schedule: Q01DX009 (ip), vehicle: Klucel (hydroxypropylcellulose) (HPC)
[4] = dose: 25.0 mg/kg/injection, schedule: Q01DX009 (ip), vehicle: Klucel (hydroxypropylcellulose) (HPC)
[5] = dose: 50.0 mg/kg/injection, schedule: Q01DX009 (ip), vehicle: Klucel (hydroxypropylcellulose) (HPC)
[6] = dose: 50.0 mg/kg/injection, schedule: Q01DX009 (ip), vehicle: saline with Tween-80
[7] = dose: 100.0 mg/kg/injection, schedule: Q01DX009 (ip), vehicle: saline with Tween-80
[8] = dose: 200.0 mg/kg/injection, schedule: Q01DX009 (ip), vehicle: saline with Tween-80
[9] = dose: 50.0 mg/kg/injection, schedule: Q01DX005 (ip), vehicle: saline with Tween-80
[10] = dose: 100.0 mg/kg/injection, schedule: Q01DX005 (ip), vehicle: saline with Tween-80
[11] = dose: 200.0 mg/kg/injection, schedule: Q01DX005 (ip), vehicle: saline with Tween-80
[12] = dose: 100.0 mg/kg/injection, schedule: Q01DX009 (ip), vehicle: Klucel (hydroxypropylcellulose) (HPC)

Measured: T/C

Cn1ncc2c(NCc3ccccc3)ncnc21
inactive: dose: 6.25 mg/kg/injection, schedule: Q01DX009 (ip), vehicle: saline sonified 95 % of control | dose: 12.5 mg/kg/injection, schedule: Q01DX009 (ip), vehicle: saline sonified 95 % of control | dose: 25.0 mg/kg/injection, schedule: Q01DX009 (ip), vehicle: saline sonified 109 % of control | dose: 50.0 mg/kg/injection, schedule: Q04DX003 (ip), vehicle: saline with Tween-80 109 % of control | dose: 100.0 mg/kg/injection, schedule: Q04DX003 (ip), vehicle: saline with Tween-80 104 % of control | dose: 200.0 mg/kg/injection, schedule: Q04DX003 (ip), vehicle: saline with Tween-80 95 % of control

C/C(=N\NC(=S)N1CCCC1)c1ncccn1
inactive: dose: 12.5 mg/kg/injection, schedule: Q04DX003 (ip), vehicle: Klucel (hydroxypropylcellulose) (HPC) 108 % of control | dose: 25.0 mg/kg/injection, schedule: Q04DX003 (ip), vehicle: Klucel (hydroxypropylcellulose) (HPC) 108 % of control | dose: 50.0 mg/kg/injection, schedule: Q04DX003 (ip), vehicle: Klucel (hydroxypropylcellulose) (HPC) 112 % of control

O=C(NC1CCCCC1)OCc1c(COC(=O)NC2CCCCC2)c(-c2ccc(Cl)c(Cl)c2)n2c1CCCC2
inactive: dose: 12.5 mg/kg/injection, schedule: Q01DX009 (ip), vehicle: distilled water + Tween-80 96 % of control | dose: 25.0 mg/kg/injection, schedule: Q01DX009 (ip), vehicle: distilled water + Tween-80 89 % of control and 91 % of control | dose: 50.0 mg/kg/injection, schedule: Q01DX009 (ip), vehicle: distilled water + Tween-80 87 % of control and 96 % of control | dose: 100.0 mg/kg/injection, schedule: Q01DX009 (ip), vehicle: distilled water + Tween-80 99 % of control and 100 % of control | dose: 200.0 mg/kg/injection, schedule: Q01DX009 (ip), vehicle: distilled water + Tween-80 99 % of control and 116 % of control | dose: 400.0 mg/kg/injection, schedule: Q01DX009 (ip), vehicle: distilled water + Tween-80 116 % of control

[Cu+2].[O-]/C(=N\N=C/c1ccco1)c1ccccc1O.[O-]/C(=N\N=C/c1ccco1)c1ccccc1O.[OH3+].[OH3+]
inactive: dose: 400.0 mg/kg/injection, schedule: Q04DX002 (ip), vehicle: saline with Tween-80 93 % of control

COc1cc2c(cc1OC)-c1c(O)c(OC)cc3c1C(C2)N(C)CC3 (stereo not drawn)
inactive: dose: 1.12 mg/kg/injection, schedule: Q01DX009 (ip), vehicle: Klucel (hydroxypropylcellulose) (HPC) 100 % of control | dose: 1.25 mg/kg/injection, schedule: Q01DX009 (ip), vehicle: Klucel (hydroxypropylcellulose) (HPC) 103 % of control | dose: 2.25 mg/kg/injection, schedule: Q01DX009 (ip), vehicle: Klucel (hydroxypropylcellulose) (HPC) 100 % of control and 103 % of control | dose: 2.5 mg/kg/injection, schedule: Q01DX009 (ip), vehicle: Klucel (hydroxypropylcellulose) (HPC) 91 % of control | dose: 4.5 mg/kg/injection, schedule: Q01DX009 (ip), vehicle: Klucel (hydroxypropylcellulose) (HPC) 103 % of control | dose: 5.0 mg/kg/injection, schedule: Q01DX009 (ip), vehicle: Klucel (hydroxypropylcellulose) (HPC) 97 % of control | dose: 9.0 mg/kg/injection, schedule: Q01DX009 (ip), vehicle: Klucel (hydroxypropylcellulose) (HPC) 110 % of control and 95 % of control | dose: 10.0 mg/kg/injection, schedule: Q01DX009 (ip), vehicle: Klucel (hydroxypropylcellulose) (HPC) 97 % of control | dose: 18.0 mg/kg/injection, schedule: Q01DX009 (ip), vehicle: Klucel (hydroxypropylcellulose) (HPC) 93 % of control

CC1(C)OC(=O)ON(C(c2ccccc2)c2ccccc2)C1=O
inactive: [1] 101 % of control | [2] 108 % of control

CC1(c2ccccn2)C(=O)c2ccccc2C1=O
inactive: dose: 50.0 mg/kg/injection, schedule: Q01DX005 (ip), vehicle: Klucel (hydroxypropylcellulose) (HPC) 98 % of control | dose: 100.0 mg/kg/injection, schedule: Q01DX005 (ip), vehicle: Klucel (hydroxypropylcellulose) (HPC) 100 % of control | dose: 200.0 mg/kg/injection, schedule: Q01DX005 (ip), vehicle: Klucel (hydroxypropylcellulose) (HPC) 99 % of control

O=C(CP(=O)(O)O)OC1CCCCC1
inactive: dose: 100.0 mg/kg/injection, schedule: Q01DX001 (ip), vehicle: saline 101 % of control | dose: 200.0 mg/kg/injection, schedule: Q01DX001 (ip), vehicle: saline 101 % of control | dose: 400.0 mg/kg/injection, schedule: Q01DX001 (ip), vehicle: saline 100 % of control

NC(CCC(=O)O)C(=O)NC(CCC(=O)O)C(=O)O (stereo not drawn) (H-Glu-Glu-OH; configuration not given here)
inactive: dose: 50.0 mg/kg/injection, schedule: Q01DX005 (ip), vehicle: saline 97 % of control | dose: 100.0 mg/kg/injection, schedule: Q01DX005 (ip), vehicle: saline 103 % of control | dose: 200.0 mg/kg/injection, schedule: Q01DX005 (ip), vehicle: saline 104 % of control

CN1NC(c2ccccc2)=C(C#N)C(=O)CC1c1ccco1 (stereo not drawn)
inactive: [1] 102 % of control | [2] 86 % of control | dose: 240.0 mg/kg/injection, schedule: Q01DX005 (ip), vehicle: saline with Tween-80 97 % of control

Cc1cc(Cl)n2nc(-c3ccc(Cl)cc3)nc2n1
inactive: [3] 106 % of control | [4] 100 % of control | [5] 109 % of control and 110 % of control

CCOC1CC(C)(C)c2c(-c3ccccc3)nn(-c3ccccc3)c2O1 (stereo not drawn)
inactive: [6] 94 % of control | [7] 100 % of control | [8] 98 % of control

O=C1OC(=O)c2cc([N+](=O)[O-])cc3cccc1c23
inactive: [9] 108 % of control and 110 % of control (2×) | [10] 100 % of control and 103 % of control and 111 % of control | [11] 102 % of control and 110 % of control and 123 % of control | dose: 400.0 mg/kg/injection, schedule: Q01DX005 (ip), vehicle: saline with Tween-80 119 % of control

Cc1cc2nc(=O)cc(CCl)n2c(=O)n1C(=O)C(O)C(O)C(O)CO (stereo not drawn)
inactive: [9] 109 % of control | [10] 117 % of control | [11] 113 % of control

CN(c1ccccc1)C(C#N)c1n[nH]c(=O)[nH]1 (stereo not drawn)
inactive: dose: 25.0 mg/kg/injection, schedule: Q04DX002 (ip), vehicle: saline with Tween-80 100 % of control | dose: 50.0 mg/kg/injection, schedule: Q04DX002 (ip), vehicle: saline with Tween-80 100 % of control | dose: 100.0 mg/kg/injection, schedule: Q04DX002 (ip), vehicle: saline with Tween-80 93 % of control

O=C(/C=C/c1ccc(OCc2ccccc2)cc1)c1c(F)cccc1F
inactive: [6] 99 % of control | [7] 98 % of control | [8] 100 % of control

Nc1nc2c(ncn2C2OC(CO)C(O)C2O)c(=O)n1N (stereo not drawn)
inactive: [3] 100 % of control and 102 % of control | [4] 103 % of control | [5] 101 % of control and 108 % of control | [12] 104 % of control and 113 % of control

O=c1nc2c3[nH]cnc3ncn2o1
inactive: [3] 101 % of control | [4] 106 % of control | [5] 101 % of control and 93 % of control | [12] 105 % of control

O=C1Nc2c(cccc2-c2ccccc2)C(=O)C1(O)c1ccccc1 (stereo not drawn)
inactive: dose: 60.0 mg/kg/injection, schedule: Q01DX005 (ip), vehicle: Klucel (hydroxypropylcellulose) (HPC) 97 % of control | dose: 120.0 mg/kg/injection, schedule: Q01DX005 (ip), vehicle: Klucel (hydroxypropylcellulose) (HPC) 94 % of control | dose: 240.0 mg/kg/injection, schedule: Q01DX005 (ip), vehicle: Klucel (hydroxypropylcellulose) (HPC) 90 % of control

N#CC(=O)c1ccccc1
inactive: dose: 3.12 mg/kg/injection, schedule: Q04DX003 (ip), vehicle: saline with Tween-80 101 % of control | dose: 6.25 mg/kg/injection, schedule: Q04DX003 (ip), vehicle: saline with Tween-80 100 % of control | dose: 12.5 mg/kg/injection, schedule: Q04DX003 (ip), vehicle: saline with Tween-80 103 % of control and 105 % of control | dose: 400.0 mg/kg/injection, schedule: Q04DX003 (ip), vehicle: saline with Tween-80 101 % of control
